The NIST ThermoML archive (doi:10.1021/je200811n)

Settings: Hot wire method

F/C=C/C(F)(F)F [trans-1,3,3,3-tetrafluoropropene]
Settings	thermal conductivity [W/m/K]
293.73 K, 303 kPa, Gas	0.01311
293.77 K, 95 kPa, Gas	0.0133
293.85 K, 231 kPa, Gas	0.01317
293.9 K, 400 kPa, Gas	0.01318
294.04 K, 155 kPa, Gas	0.01319
294.06 K, 345 kPa, Gas	0.01312
294.27 K, 95 kPa, Gas	0.01329
294.45 K, 343 kPa, Gas	0.01318
301.02 K, 868 kPa, Liquid	0.07405
301.09 K, 873 kPa, Liquid	0.07375
301.25 K, 21041 kPa, Liquid	0.08609
301.27 K, 15433 kPa, Liquid	0.08285
301.28 K, 15438 kPa, Liquid	0.08293
301.32 K, 10268 kPa, Liquid	0.07996
301.32 K, 21030 kPa, Liquid	0.08586
301.33 K, 5341 kPa, Liquid	0.07696
301.35 K, 15435 kPa, Liquid	0.08267
301.36 K, 15436 kPa, Liquid	0.08267
301.39 K, 877 kPa, Liquid	0.07371
301.4 K, 10267 kPa, Liquid	0.07978
301.41 K, 810 kPa, Liquid	0.07351
301.41 K, 5340 kPa, Liquid	0.07676
301.47 K, 877 kPa, Liquid	0.07359
301.48 K, 201 kPa, Gas	0.01405
301.5 K, 101 kPa, Gas	0.01387
301.5 K, 812 kPa, Liquid	0.07342
301.64 K, 15430 kPa, Liquid	0.0828
301.69 K, 10267 kPa, Liquid	0.07986
301.7 K, 201 kPa, Gas	0.01393
301.71 K, 21026 kPa, Liquid	0.08586
301.72 K, 5338 kPa, Liquid	0.07673
301.73 K, 101 kPa, Gas	0.01377
301.74 K, 15425 kPa, Liquid	0.08254
301.75 K, 15438 kPa, Liquid	0.08085
301.8 K, 875 kPa, Liquid	0.07346
301.81 K, 10267 kPa, Liquid	0.07952
301.82 K, 21035 kPa, Liquid	0.08546
301.83 K, 5339 kPa, Liquid	0.07652
301.9 K, 871 kPa, Liquid	0.07331
301.92 K, 820 kPa, Liquid	0.07315
301.95 K, 201 kPa, Gas	0.01381
301.98 K, 101 kPa, Gas	0.01368
302.06 K, 15424 kPa, Liquid	0.08252
302.07 K, 283 kPa, Gas	0.01426
302.13 K, 10265 kPa, Liquid	0.07959
302.17 K, 5336 kPa, Liquid	0.0765
302.2 K, 201 kPa, Gas	0.01376
302.23 K, 21022 kPa, Liquid	0.08536
302.24 K, 102 kPa, Gas	0.01362
302.26 K, 867 kPa, Liquid	0.07328
302.26 K, 10266 kPa, Liquid	0.07933
302.28 K, 278 kPa, Gas	0.01416
302.28 K, 835 kPa, Liquid	0.07308
302.31 K, 5328 kPa, Liquid	0.07627
302.38 K, 21010 kPa, Liquid	0.0851
302.4 K, 858 kPa, Liquid	0.07303
302.43 K, 15441 kPa, Liquid	0.08206
302.46 K, 201 kPa, Gas	0.01371
302.51 K, 101 kPa, Gas	0.01358
302.51 K, 273 kPa, Gas	0.01407
302.51 K, 345 kPa, Gas	0.01391
302.52 K, 15424 kPa, Liquid	0.08203
302.61 K, 10265 kPa, Liquid	0.07929
302.67 K, 5319 kPa, Liquid	0.07625
302.68 K, 15424 kPa, Liquid	0.08166
302.74 K, 270 kPa, Gas	0.01405
302.77 K, 10264 kPa, Liquid	0.079
302.78 K, 847 kPa, Liquid	0.07298
302.8 K, 868 kPa, Liquid	0.07244
302.84 K, 5317 kPa, Liquid	0.07599
302.84 K, 21005 kPa, Liquid	0.08503
302.86 K, 345 kPa, Gas	0.01388
302.91 K, 15440 kPa, Liquid	0.08218
302.94 K, 321 kPa, Gas	0.01444
302.99 K, 267 kPa, Gas	0.01402
303 K, 21003 kPa, Liquid	0.08496
303.03 K, 15420 kPa, Liquid	0.08154
303.06 K, 201 kPa, Gas	0.01387
303.09 K, 515 kPa, Gas	0.01405
303.1 K, 443 kPa, Gas	0.01398
303.22 K, 15419 kPa, Liquid	0.08081
303.24 K, 345 kPa, Gas	0.01392
303.3 K, 101 kPa, Gas	0.01415
303.42 K, 515 kPa, Gas	0.01408
303.44 K, 443 kPa, Gas	0.01405
303.46 K, 201 kPa, Gas	0.01405
303.5 K, 21000 kPa, Liquid	0.08483
303.63 K, 345 kPa, Gas	0.01394
303.77 K, 515 kPa, Gas	0.01408
303.8 K, 441 kPa, Gas	0.01404
303.82 K, 515 kPa, Gas	0.01409
303.89 K, 201 kPa, Gas	0.01411
304.06 K, 345 kPa, Gas	0.01397
304.14 K, 515 kPa, Gas	0.01407
304.18 K, 102 kPa, Gas	0.01422
304.18 K, 441 kPa, Gas	0.01406
304.34 K, 201 kPa, Gas	0.01397
304.53 K, 514 kPa, Gas	0.01408
304.57 K, 442 kPa, Gas	0.01401
304.57 K, 514 kPa, Gas	0.0141
304.66 K, 101 kPa, Gas	0.0142
311.41 K, 326 kPa, Gas	0.01522
311.43 K, 200 kPa, Gas	0.01495
311.44 K, 102 kPa, Gas	0.01483
311.61 K, 325 kPa, Gas	0.01511
311.65 K, 200 kPa, Gas	0.01482
311.67 K, 102 kPa, Gas	0.01465
311.83 K, 325 kPa, Gas	0.01504
311.89 K, 200 kPa, Gas	0.0147
311.91 K, 101 kPa, Gas	0.01455
312.06 K, 325 kPa, Gas	0.015
312.14 K, 200 kPa, Gas	0.01462
312.16 K, 101 kPa, Gas	0.01449
312.25 K, 581 kPa, Gas	0.01478
312.31 K, 325 kPa, Gas	0.01497
312.4 K, 200 kPa, Gas	0.01456
312.41 K, 431 kPa, Gas	0.01481
312.43 K, 101 kPa, Gas	0.0144
312.48 K, 326 kPa, Gas	0.01471
312.57 K, 582 kPa, Gas	0.01477
312.62 K, 200 kPa, Gas	0.0149
312.73 K, 430 kPa, Gas	0.01467
312.8 K, 102 kPa, Gas	0.01504
312.83 K, 325 kPa, Gas	0.01474
312.92 K, 584 kPa, Gas	0.01483
312.98 K, 200 kPa, Gas	0.01488
313.1 K, 428 kPa, Gas	0.01481
313.2 K, 102 kPa, Gas	0.01509
313.2 K, 325 kPa, Gas	0.01472
313.27 K, 585 kPa, Gas	0.01483
313.39 K, 200 kPa, Gas	0.01487
313.49 K, 429 kPa, Gas	0.01476
313.6 K, 325 kPa, Gas	0.01477
313.64 K, 102 kPa, Gas	0.01508
313.67 K, 586 kPa, Gas	0.01487
313.81 K, 200 kPa, Gas	0.01496
313.88 K, 428 kPa, Gas	0.01479
314.02 K, 325 kPa, Gas	0.01482
314.08 K, 101 kPa, Gas	0.01511
314.25 K, 200 kPa, Gas	0.01496
314.56 K, 101 kPa, Gas	0.01518
320.95 K, 10241 kPa, Liquid	0.07419
320.95 K, 15330 kPa, Liquid	0.07758
321 K, 1074 kPa, Liquid	0.06717
321 K, 15328 kPa, Liquid	0.07747
321 K, 15398 kPa, Liquid	0.07709
321 K, 21637 kPa, Liquid	0.08122
321.01 K, 5363 kPa, Liquid	0.07064
321.01 K, 10238 kPa, Liquid	0.07408
321.06 K, 1073 kPa, Liquid	0.06692
321.06 K, 15400 kPa, Liquid	0.07715
321.06 K, 21630 kPa, Liquid	0.08106
321.08 K, 5360 kPa, Liquid	0.07051
321.23 K, 96 kPa, Gas	0.01565
321.24 K, 193 kPa, Gas	0.01579
321.26 K, 302 kPa, Gas	0.01598
321.31 K, 15324 kPa, Liquid	0.07738
321.32 K, 10235 kPa, Liquid	0.07406
321.34 K, 21627 kPa, Liquid	0.08112
321.35 K, 1071 kPa, Liquid	0.06648
321.36 K, 15404 kPa, Liquid	0.0766
321.37 K, 5451 kPa, Liquid	0.07074
321.39 K, 15326 kPa, Liquid	0.07727
321.4 K, 5358 kPa, Liquid	0.07043
321.42 K, 10233 kPa, Liquid	0.07383
321.43 K, 1070 kPa, Liquid	0.06675
321.43 K, 21621 kPa, Liquid	0.08087
321.44 K, 5449 kPa, Liquid	0.07064
321.45 K, 96 kPa, Gas	0.01549
321.45 K, 15400 kPa, Liquid	0.07716
321.46 K, 193 kPa, Gas	0.01564
321.48 K, 301 kPa, Gas	0.01576
321.5 K, 5355 kPa, Liquid	0.07013
321.69 K, 96 kPa, Gas	0.01537
321.69 K, 193 kPa, Gas	0.01553
321.69 K, 301 kPa, Gas	0.01571
321.73 K, 15326 kPa, Liquid	0.07718
321.74 K, 21616 kPa, Liquid	0.08084
321.76 K, 10233 kPa, Liquid	0.07335
321.77 K, 1068 kPa, Liquid	0.06659
321.77 K, 5449 kPa, Liquid	0.07051
321.77 K, 15389 kPa, Liquid	0.07714
321.85 K, 15325 kPa, Liquid	0.077
321.85 K, 21616 kPa, Liquid	0.08065
321.86 K, 5352 kPa, Liquid	0.07024
321.87 K, 1067 kPa, Liquid	0.06647
321.87 K, 5446 kPa, Liquid	0.07039
321.88 K, 10232 kPa, Liquid	0.07374
321.89 K, 15379 kPa, Liquid	0.07673
321.93 K, 96 kPa, Gas	0.01526
321.93 K, 301 kPa, Gas	0.0156
321.94 K, 193 kPa, Gas	0.01541
321.94 K, 862 kPa, Gas	0.01585
321.98 K, 5353 kPa, Liquid	0.07002
322.01 K, 717 kPa, Gas	0.01564
322.18 K, 301 kPa, Gas	0.01554
322.19 K, 193 kPa, Gas	0.01534
322.19 K, 21613 kPa, Liquid	0.0806
322.2 K, 15324 kPa, Liquid	0.07701
322.23 K, 861 kPa, Gas	0.01583
322.24 K, 5447 kPa, Liquid	0.07031
322.25 K, 432 kPa, Gas	0.01554
322.25 K, 1068 kPa, Liquid	0.06595
322.25 K, 10235 kPa, Liquid	0.0737
322.25 K, 15372 kPa, Liquid	0.07646
322.27 K, 889 kPa, Gas	0.01589
322.32 K, 715 kPa, Gas	0.01567
322.32 K, 21607 kPa, Liquid	0.08044
322.34 K, 302 kPa, Gas	0.01575
322.34 K, 15322 kPa, Liquid	0.0768
322.35 K, 5442 kPa, Liquid	0.07009
322.37 K, 5357 kPa, Liquid	0.07003
322.38 K, 1067 kPa, Liquid	0.06625
322.4 K, 10234 kPa, Liquid	0.07347
322.48 K, 588 kPa, Gas	0.01563
322.52 K, 5368 kPa, Liquid	0.06983
322.55 K, 859 kPa, Gas	0.01582
322.57 K, 432 kPa, Gas	0.01556
322.58 K, 886 kPa, Gas	0.01586
322.65 K, 713 kPa, Gas	0.01571
322.69 K, 301 kPa, Gas	0.01554
322.7 K, 21605 kPa, Liquid	0.08035
322.73 K, 15322 kPa, Liquid	0.07671
322.75 K, 5443 kPa, Liquid	0.07003
322.79 K, 1065 kPa, Liquid	0.06618
322.8 K, 10233 kPa, Liquid	0.07327
322.81 K, 193 kPa, Gas	0.01577

Liquid
Settings	thermal conductivity [W/m/K]
303.15 K	0.07268
313.15 K	0.06932
